# Data taken from US4824941A, “Specific antibody to the native form of 2'5'-oligonucleotides, the method of preparation and the use as reagents in immunoassays or for binding 2'5'-oligonucleotides in biological systems” (priority 1988, dated 1989).
# How the values were obtained:
# [1] = system: Friend mouse erythroleukemia cells (N46AP); experiment: 2'5'-oligo(A) levels in differentiating Friend erythroleukemia cells, clone N46AP; type: cell-based; conditions: 1.4% (v/v) DMSO
# Experimental: (§1) This is an example for cells growing in culture, but is universally applicable to any biological material: cell cultures, organs, tissues, bodily fluids such as blood, urine, cerebrospinal fluids, milk or any other suitably available material. Cells in a petri dish are rapidly washed with buffered saline (this step is dispensed with in the case of bodily fluids), then enough ice cold 5% trichloracetic acid (TCA) to cover the layer of cells (3 ml for a 7 cm diameter petri dish) and the dish is kept on ice for 5 min. The TCA and detached cells are removed and centrifuged to remove the insoluble material, and the dish and pellet are re-extracted with a similar volume of 5% TCA and the supernatants pooled. Alternatively, in the case of a cell suspension culture, the cells are pelleted by centrifugation at room temperature, the cells resuspended in a volume of buffered saline equal to the volume of the pellet, and approximately 10 volumes of 5% TCA are added. The insoluble material is removed by centrifugation and the pellet extracted with 1/2 the previous volume of 5% TCA. The supernatants are pooled. All operations with TCA are performed between 0° C. and 5° C. The pooled supernatants are freed of TCA by extraction with an equal volume of 30% (v/v) tri-N-octylamine in Freon 113 (Dow Chemicals). The upper aqueous phase is collected and the Freon phase re-extracted with 1/2 the preceeding volume of distilled water. Since biological material may contain ATP in the mM range, and it is desirable to measure 2'5'-oligo(A) in the nM range, it may be desirable to remove such 10^6 -fold excess of ATP, which might interfere with the assay. The ATP and other nucleotides which might interfere with the assay may then be removed chromatographically with DEAE cellulose (Whatman DE-52) equilibrated with 125 mM NH4 HCO3 (pH 7.8). The loading ratio is the same as for the preparative columns of example 1, but microcolumns of 200 μl are optimal for this analytical scale. The column is washed with 15 ml of the same buffer to remove the ATP and other unbound material. The 2'5'-oligo(A) is eluted with 2 ml of 0.5M NH4 HCO3, and the samples are lyophilized after addition of 1/10th volume of ethanol. The samples may be stored indefinitely in anhydrous form and re-dissolved with suitable volumes of solvent for the radio-immuno assay as described in example 3.
# Friend mouse erythroleukemia cells can be induced to differentiate and become erythropoietic under the influence of a variety of reagents, especially dimethylsulfoxide. Such cells are also known to produce the enzyme 2'5'-oligo(A) synthetase. Before the method of the present invention, it was not possible to determine the 2'5'oligo(A) directly in these cells. The determination is described in this example. The Friend cells (clone FBU or N46AP) are grown in Dulbecco's modified Eagle's Medium containing 10% fetal calf serum, 2% (v/v) dimethylsulfoxide for FBU or 1.4% (v/v) DMSO for N46 AP and 1 mM glutamine. The cells are diluted with the same medium daily to maintain a density of 5.10^5 cells per ml. At various times, 30 ml cultures are collected and processed as described in the preceeding example. The lyophilized material is dissolved in the buffer corresponding to the reaction mixture for the assay, as in example 2, but containing 0.1 mg/ml of bovine serum albumin. The 2'5'-oligo(A) content is determined from the reduction of the binding of the [^32 P] labelled probe as in example 2 and 3.
# [2] = system: Friend mouse erythroleukemia cells (FBU); experiment: 2'5'-oligo(A) levels in differentiating Friend erythroleukemia cells, clone FBU; type: cell-based; conditions: 2% (v/v) DMSO
# Experimental: as §1, with “The ATP and other nucleotides which might interfere with the assay may then be removed chromatographically with DEAE cellulose (Whatman DE-52) equilibrated with 125 mM NH4 HCO3 (pH 7.8). The loading ratio is the same as for the preparative columns of example 1, but microcolumns of 200 μl are optimal for this analytical scale. The column is washed with 15 ml of the same buffer to remove the ATP and other unbound material. The 2'5'-oligo(A) is eluted with 2 ml of 0.5M NH4 HCO3, and the samples are lyophilized after addition of 1/10th volume of ethanol. The samples may be stored indefinitely in anhydrous form and re-dissolved with suitable volumes of solvent for the radio-immuno assay as described in example 3.” left out
# Friend mouse erythroleukemia cells can be induced to differentiate and become erythropoietic under the influence of a variety of reagents, especially dimethylsulfoxide. […] The 2'5'-oligo(A) content is determined from the reduction of the binding of the [^32 P] labelled probe as in example 2 and 3.
# [3] = biological target: specific antibody to 2'5'-oligo(A); experiment: Competitive binding radio-immune assay (inhibition of binding of [32P]-labelled 2'5'A tetramer pCp probe to antibody, nitrocellulose filter); conditions: 25 μl, 0°, 1 hr; [32P] 2'5'A tetramer pCp probe
# Experimental: The titers of the antisera are determined from the reciprocal of the dilution which gives 50% retention of the radioactivity to a nitrocellulose filter. The antiserum dilution is incubated in 25 μl of 20 mM KOAc, 10 mM HEPES-KOH, pH 7.4, 1.5 mM Mg(OAc)2 containing 1 mg/ml bovine serum albumin (BSA) and 5-6000 cpm of [^32 P] terminally labelled 2'5'A tetramer pCp (Amersham International: specific activity, approximately 3000 Ci/mmole). After incubation at 0° for 1 hr, the mixtures are diluted with 3 ml of ice cold 90 mM KCl, 20 mM Tris-HCl, pH 7.6 and passed through 25 mm discs of nitrocellulose (Millipore, type HAWP, 0.45 μ) with a filtration apparatus. The filters are washed with a further 2 portions of the same buffer, and retained radioactivity counted by Cerenkov radiation in a scintillation counter.
# In the simple radio-immune assay described in Example 2, the unknown is determined by dilution of the radioactivity bound from the constant amount of known radioactive probe. […] This inhibition is a measure of the affinity of the related compound for the antibody, and will also indicate to what extent such compounds might interfere with the assay, if present in the material being analysed. […] A collection of 2'5'-adenylates and related compounds were prepared as follows. The dimer, trimer, tetramer and pentamer were obtained from the DEAE-cellulose fractionation of example 1. The tetramer was partially digested with bacterial alkaline phosphatase and the products separated by high performance liquid chromatography on a Partisil SAX column (Whatman), with 10 mM potassium phosphate buffer, pH 6.8, 20% ethanol and a gradient from 10 to 500 mM KCl. Acetyl and succinyl derivatives of the tetramer were obtained by reaction with acetic and succinic anhydride, according to the method of Example 1. Other compounds were from commercial sources.
# [4] = system: 2'5'-oligo(A) synthetase; experiment: 2'5'-oligo(A) synthetase in 3T3 cells, radio-immune assay of reaction product; type: cell-based, Swiss mouse; conditions: 3T3 cells treated overnight; 10 μM prostaglandin F2α or 100 u/ml interferon; none 50, background 0
# Text: (§2) Because of the extremely efficient reaction condition of cell-free systems, it is possible to assay low levels of 2'5'-oligo(A) synthetase. However, it is sometimes desirable to measure low levels from extremely small amounts of precious starting material. By coupling the extremely sensitive measurement of 2'5'-oligo(A) according to the methods of the present invention, with the enzymatic assay for 2'5'-oligo(A) polymerase, the enzyme can be determined with 10^5 -fold higher sensitivity than was previously possible. In the example, Swiss mouse 3T3 fibroblast cells are stimulated into a cell cycle by a variety of hormones and factors (for literature on this subject see the article "Criteria for the establishment of the biological significance of ribosomal protein phosphorylation" in Current Topics in Cellular Regulation, volume 21, 1982, pages 89-99, by J. Gordon, P. J. Nielsen, K. L. Manchester, H. Towbin, L. Jimenez de Asua and G. Thomas). […] One portion (198 μl) is analysed for conversion of the ATP to 2'5'-oligo(A) from the retention of radioactivity on an analytical DEAE cellulose column (see example 4). The other portion (2 μl) is diluted in the range 250 to 10,000-fold and the 2'5'-oligo(A) determined by the radioimmune assay (see example 3).
# [5] = system: 2'5'-oligo(A) synthetase; experiment: 2'5'-oligo(A) synthetase in 3T3 cells, conventional assay ([3H]-ATP to [3H]-2'5'-oligo(A)); type: cell-based, Swiss mouse; conditions: 3T3 cells treated overnight; 10 μM prostaglandin F2α or 100 u/ml interferon; none 556, background (197)
# Text: as §2
# [6] = system: 2'5'-oligo(A) synthetase; conditions: source of value not given; read-out: Km of the enzyme; cited from earlier work
compound,measurement,setting,value
"C[S+](C)[O-] [DMSO, dimethylsulfoxide]",2'5'-oligo(A),[1]; day 1 post-DMSO (day 0: 7.5),7.8 fmoles/10^6 cells
same,2'5'-oligo(A),[1]; day 2 post-DMSO,4.3 fmoles/10^6 cells
same,2'5'-oligo(A),[1]; day 3 post-DMSO,17.5 fmoles/10^6 cells
same,2'5'-oligo(A),[1]; day 5 post-DMSO,63 fmoles/10^6 cells
same,2'5'-oligo(A),[1]; day 6 post-DMSO,53 fmoles/10^6 cells
same,2'5'-oligo(A),[2]; day 1 post-DMSO (day 0: 2.6),28 fmoles/10^6 cells
same,2'5'-oligo(A),[2]; day 2 post-DMSO,28 fmoles/10^6 cells
same,2'5'-oligo(A),[2]; day 4 post-DMSO,20 fmoles/10^6 cells
O=c1ccn([C@@H]2O[C@H](COP(=O)(O)OP(=O)(O)OP(=O)(O)O)[C@@H](O)[C@H]2O)c(=O)[nH]1 [UTP],amount giving 50% inhibition of the maximal binding of the [^32 P]-labelled probe,[3],"> 3,000,000 fmoles"
pA(2'p5'A)3,amount giving 50% inhibition of the maximal binding of the [^32 P]-labelled probe,[3],25 fmol
Nc1ncnc2c1ncn2[C@@H]1O[C@H](COP(=O)(O)O)[C@@H](O)[C@H]1O [AMP],amount giving 50% inhibition of the maximal binding of the [^32 P]-labelled probe,[3],"> 3,000,000 fmoles"
Nc1ccn([C@@H]2O[C@H](COP(=O)(O)O)[C@@H](OP(=O)(O)O)[C@H]2O)c(=O)n1 [pCp],amount giving 50% inhibition of the maximal binding of the [^32 P]-labelled probe,[3],"> 3,000,000 fmoles"
NC(=O)C1=CN([C@@H]2O[C@H](COP(=O)(O)OP(=O)(O)OC[C@H]3O[C@@H](n4cnc5c(N)ncnc54)[C@H](O)[C@@H]3O)[C@@H](O)[C@H]2O)C=CC1 [NADH],amount giving 50% inhibition of the maximal binding of the [^32 P]-labelled probe,[3],"> 3,000,000 fmoles"
Nc1ncnc2c1ncn2[C@@H]1O[C@H](COP(=O)(O)OP(=O)(O)O)[C@@H](O)[C@H]1O [ADP],amount giving 50% inhibition of the maximal binding of the [^32 P]-labelled probe,[3],"> 3,000,000 fmoles"
5'-(phospho)3 (adenylyl 2'-5')2 adenosine [pppA(2'p5'A)2],amount giving 50% inhibition of the maximal binding of the [^32 P]-labelled probe,[3],2.5 fmol
Nc1ccn([C@@H]2O[C@H](COP(=O)(O)OP(=O)(O)OP(=O)(O)O)[C@@H](O)[C@H]2O)c(=O)n1 [CTP],amount giving 50% inhibition of the maximal binding of the [^32 P]-labelled probe,[3],"> 3,000,000 fmoles"
Nc1nc2c(ncn2[C@@H]2O[C@H](COP(=O)(O)OP(=O)(O)OP(=O)(O)O)[C@@H](O)[C@H]2O)c(=O)[nH]1 [GTP],amount giving 50% inhibition of the maximal binding of the [^32 P]-labelled probe,[3],"> 3,000,000 fmoles"
CCCCC[C@H](O)/C=C/[C@@H]1[C@@H](C/C=C\CCCC(=O)O)[C@@H](O)C[C@H]1O [prostaglandin F2α],Radio-immune assay for 2'5'-oligo(A),[4],100 pmoles/assay
same,[^3 H]-ATP→[^3 H]-2'5'-oligo(A),[5],632 cpm/assay
Nc1ncnc2c1ncn2[C@@H]1O[C@H](COP(=O)(O)OP(=O)(O)OP(=O)(O)O)[C@@H](O)[C@H]1O [ATP],Km,[6],~1000 µM
same,amount giving 50% inhibition of the maximal binding of the [^32 P]-labelled probe,[3],"> 3,000,000 fmoles"
